Read-outs that look alike come from different tables or passages of the source.
What was measured:
HIV-1 (H9/IIIB strain) = experiment: microbe, parasite or virus in culture; type: cell-based
Protocol: Assessing Antiviral Potency in a Multiple Round HIV-1 Infection Assay (Viking Assay)
The antiviral activity of the tenofovir prodrugs of the Examples herein was assessed in an assay that measures the rate of replication of HIV in cell culture, termed the Viking assay (Viral KINetics in Green cells) and performed as follows. HIV-1 replication was monitored using MT4-gag-GFP clone D3 (hereafter designated MT4-GFP), which are MT-4 cells modified to harbor a GFP reporter gene, the expression of which is dependent on the HIV-1 expressed proteins tat and rev. Productive infection of an MT4-GFP cell with HIV-1 results in GFP expression approximately 24 h post-infection. MT4-GFP cells were maintained at 37° C./5% CO2/90% relative humidity in RPMI 1640 supplemented with 10% fetal bovine serum, 100 U/ml penicillin/streptomycin, and 400 μg/ml G418 to maintain the reporter gene. For infections, MT4-GFP cells were placed in the same medium lacking G418 and infected overnight with HIV-1 (H9/IIIB strain) virus at an approximate multiplicity of infection of 0.01 in the same incubation conditions. Cells were then washed and re-suspended in either RPMI 1640 supplemented with 10% or 50% normal human serum (NHS) at 1.6×10^5 cells/mL (10% NHS or 50% NHS, respectively). Compound plates were prepared by dispensing compounds dissolved in DMSO into wells of 384 well poly-D-lysine-coated plates (0.2 μl/well) using an ECHO acoustic dispenser. Each compound was tested in a 10-point serial 3-fold dilution (typical final concentrations: 8.4 μM-0.42 nM). Controls included no inhibitor (DMSO only) and a combination of three antiviral agents (efavirenz, indinavir, an in-house integrase strand transfer inhibitor at final concentrations of 4 μM each). Cells were added ([…]) to compound plates and the infected cells were maintained at 37° C./5% CO2/90% relative humidity.
Infected cells were quantified at two time points, ˜48 h and ˜72 h post-infection, by counting the number of green cells in each well using an Acumen eX3 scanner. […] Inhibition of R0 is calculated for each well, and IC50s determined by non-linear 4-parameter curve fitting.

[1] = Prodrug stability assay in bio-relevant media (FaSSIF with pancreatin; GI tract stability); type: in vitro ADME; conditions: parent prodrug area at 5 h divided by area at 0 h; 37° C.; 0.5 mg/mL pancreatin in FaSSIF
Protocol: Prodrug Stability Assay in Bio-Relevant Media
The following assay was employed to evaluate the stability of the prodrugs in simulated gastrointestinal tract conditions. Preparation of fasted state simulated intestinal fluid (FaSSIF) using Phares SIF Powder was carried out according to protocols from Phare Drug Delivery AG (Baselland, Switzerland). For sample preparation, 10 μL stock solutions (10 mM) of prodrug substance in DMSO was added to 990 μL of 0.5 mg/mL Pancreatin solution (Fisher CAS#8049-47-6) in FaSSIF. Two samples were prepared for each compound at initial. If the sample was clear solution at the beginning, ran one sample directly as initial by HPLC; if the sample was not clear at starting, diluted the sample by 100% ACN. Put the other sample under 37° C. and observed the sample at 5 h time-point. At 5 h time point, if the sample was clear solution then performed HPLC analysis directly; if it was not clear solution, diluted the sample by 100% ACN and assayed by HPLC. All the samples were vortexed for 3 min and observed before injection. For the diluted samples, the area will be multiplied by a factor when data analysis. The analysis was carried out with an Agilent 1100 series HPLC with autosampler. The column was usually a Poroshell 120 EC-C18, 4.6×50 mm, 2.7 μm. The flow rate was 1.8 mL/min, and the injection volume was 5 or 10 μL. UV detection was in the range 210-400 nm. The mobile phase consisted of solvent A (water plus 10 mM tetrabutylammonium bromide) and solvent B (acetonitrile) with a gradient of 90% solvent A at 0 min changing to 95% solvent B over 6 min, maintained for 1.5 min, then reverting to 90% solvent A over 1.6 min. The area of the parent in prodrug at 5 h time point was divided by the area of the parent in prodrug at 0 h time point, to generate the % claimed parent ratio, which are summarized in Table 5 for GI Tract stability.

[2] = Human immunodeficiency virus 1, 10% normal human serum, MT4-GFP cells infected with HIV-1 H9/IIIB, inhibition of reproductive ratio R0, read-out: Viking, IC50 (10% NHS)
[3] = Human immunodeficiency virus 1, 50% normal human serum, MT4-GFP cells infected with HIV-1 H9/IIIB, inhibition of reproductive ratio R0, read-out: Viking, IC50 (50% NHS)
[4] = 10% normal human serum, MT4-GFP cells infected with HIV-1 H9/IIIB, inhibition of reproductive ratio R0, read-out: Viking, IC50 (10% NHS)
[5] = 50% normal human serum, MT4-GFP cells infected with HIV-1 H9/IIIB, inhibition of reproductive ratio R0, read-out: Viking, IC50 (50% NHS)
[6] = Human immunodeficiency virus 1, IIIB, 10% normal human serum, MT4-GFP cells infected with HIV-1 H9/IIIB, inhibition of reproductive ratio R0, read-out: Viking, IC50 (10% NHS)
[7] = Human immunodeficiency virus 1, IIIB, 50% normal human serum, MT4-GFP cells infected with HIV-1 H9/IIIB, inhibition of reproductive ratio R0, read-out: Viking, IC50 (50% NHS)

Row | SMILES | IC50 (HIV-1 (H9/IIIB strain); [4]) | IC50 (HIV-1 (H9/IIIB strain); [5]) | IC50 (HIV-1 (H9/IIIB strain); [7]) | further results
1 | CC(C)OC(=O)[C@H](C)NP(=O)(CO[C@H](C)Cn1cnc2c(N)ncnc21)NC[C@H](C)C(=O)OC(C)C (single isomer, unassigned) [Example 6A] | – | – | – | IC50 (HIV-1 (H9/IIIB strain); [2]): 20 nM; IC50 (HIV-1 (H9/IIIB strain); [3]): 59.3 nM; GI Tract stability [1]: 99.5%
2 | CC(C)OC(=O)CCNP(=O)(CO[C@H](C)Cn1cnc2c(N)ncnc21)N[C@@H](C)C(=O)OC(C)C (single isomer, unassigned) [Example 7B] | – | – | – | IC50 (HIV-1 (H9/IIIB strain); [2]): 378 nM; IC50 (HIV-1 (H9/IIIB strain); [3]): 393 nM
3 | CC(C)OC(=O)C[C@H](C)NP(=O)(CO[C@H](C)Cn1cnc2c(N)ncnc21)N[C@@H](C)C(=O)OC(C)C (single isomer, unassigned) [Example 8B] | 439 nM | 531 nM | – | –
4 | CC(C)OC(=O)C[C@@H](C)NP(=O)(CO[C@H](C)Cn1cnc2c(N)ncnc21)N[C@@H](C)C(=O)OC(C)C (single isomer, unassigned) [Example 9B] | 378 nM | 800 nM | – | –
5 | CC(C)OC(=O)[C@H](C)CNP(=O)(CO[C@H](C)Cn1cnc2c(N)ncnc21)N[C@@H](C)C(=O)OC(C)C (single isomer, unassigned) [Example 10B] | 435 nM | 908 nM | – | –
6 | CC(C)OC(=O)[C@@H](C)CNP(=O)(CO[C@H](C)Cn1cnc2c(N)ncnc21)N[C@@H](C)C(=O)OC1CCCC1 (single isomer, unassigned) [Example 11A] | – | – | 104 nM | IC50 (HIV-1 (H9/IIIB strain); [6]): 21.5 nM
7 | CC(C)OC(=O)[C@@H](C)CNP(=O)(CO[C@H](C)Cn1cnc2c(N)ncnc21)N[C@@H](C)C(=O)OC1CCC1 (single isomer, unassigned) [Example 12A] | – | – | 119 nM | IC50 (HIV-1 (H9/IIIB strain); [6]): 41.7 nM
8 | CC(C)OC(=O)[C@@H](C)CNP(=O)(CO[C@H](C)Cn1cnc2c(N)ncnc21)N[C@@H](C)C(=O)OC1CCCCC1 (single isomer, unassigned) [Example 13B] | 34.2 nM | 175 nM | – | –
9 | CCCCOC(=O)[C@H](C)NP(=O)(CO[C@H](C)Cn1cnc2c(N)ncnc21)NC[C@H](C)C(=O)OC(C)C (single isomer, unassigned) [Example 15A] | – | – | 146 nM | IC50 (HIV-1 (H9/IIIB strain); [6]): 19.6 nM
10 | CC(C)OC(=O)C[C@H](C)NP(=O)(CO[C@H](C)Cn1cnc2c(N)ncnc21)N[C@H](C)C(=O)OC1CCC1 (single isomer, unassigned) [Example 19B] | 3790 nM | > 8400 nM | – | –
11 | CC(C)OC(=O)[C@@H](C)CNP(=O)(CO[C@H](C)Cn1cnc2c(N)ncnc21)N[C@H](C)C(=O)OC1CCC1 (single isomer, unassigned) [Example 20A] | 859 nM | 4100 nM | – | –
12 | CC(C)OC(=O)[C@@H](C)CNP(=O)(CO[C@H](C)Cn1cnc2c(N)ncnc21)N[C@H](C)C(=O)OC1CCCCC1 (single isomer, unassigned) [Example 21A] | 1460 nM | – | – | –
13 | CC(C)OC(=O)[C@@H](C)CNP(=O)(CO[C@H](C)Cn1cnc2c(N)ncnc21)N[C@H](C)C(=O)OC1CCCCC1 (single isomer, unassigned) [Example 21B] | 270 nM | 836 nM | – | –
14 | CC(C)OC(=O)[C@@H](C)CNP(=O)(CO[C@H](C)Cn1cnc2c(N)ncnc21)N[C@H](C)C(=O)OC1CCCC1 (single isomer, unassigned) [Example 22A] | 400 nM | – | 480 nM | –
15 | CC(C)OC(=O)CCNP(=O)(CO[C@H](C)Cn1cnc2c(N)ncnc21)N[C@H](C)C(=O)OC1CCC1 (single isomer, unassigned) [Example 23A] | > 8400 nM | > 8400 nM | – | –
16 | CCCCCOC(=O)C(C)(C)NP(=O)(CO[C@H](C)Cn1cnc2c(N)ncnc21)N[C@@H](C)CC(=O)OC(C)C (single isomer, unassigned) [Example 26A] | 23.3 nM | 116 nM | – | –
17 | CCCCCCOC(=O)C(C)(C)NP(=O)(CO[C@H](C)Cn1cnc2c(N)ncnc21)N[C@@H](CC(=O)OC(C)C)C(C)C (single isomer, unassigned) [Example 28A] | 19.1 nM | 58.5 nM | – | –
18 | CC(C)OC(=O)CCNP(=O)(CO[C@H](C)Cn1cnc2c(N)ncnc21)NCCC(=O)OC(C)C [Example 1, 1-methylethyl 8-{[(1R)-2-(6-amino-9H-purin-9-yl)-1-methylethoxy]methyl}-2-methyl-4-oxo-3-oxa-7,9-diaza-8-phosphadodecan-12-oate 8-oxide] | – | – | – | IC50 (HIV-1 (H9/IIIB strain); Human immunodeficiency virus 1, IIIB, read-out: Viking, IC50 (10% NHS)): > 8400 nM; IC50 (HIV-1 (H9/IIIB strain); Human immunodeficiency virus 1, IIIB, read-out: Viking, IC50 (50% NHS)): > 8400 nM
19 | CC(C)OC(=O)C[C@@H](C)NP(=O)(CO[C@H](C)Cn1cnc2c(N)ncnc21)N[C@H](C)CC(=O)OC(C)C [Example 2, 1-methylethyl (6R,10R)-8-{[(1R)-2-(6-amino-9H-purin-9-yl)-1-methylethoxy]methyl}-2,6,10-trimethyl-4-oxo-3-oxa-7,9-diaza-8-phosphadodecan-12-oate 8-oxide] | – | – | > 8400 nM | IC50 (HIV-1 (H9/IIIB strain); [6]): > 8400 nM
20 | CC(C)OC(=O)[C@@H](C)CNP(=O)(CO[C@H](C)Cn1cnc2c(N)ncnc21)NC[C@H](C)C(=O)OC(C)C [Example 3, 1-methylethyl (5S,11S)-8-{[(1R)-2-(6-amino-9H-purin-9-yl)-1-methylethoxy]methyl}-2,5,11-trimethyl-4-oxo-3-oxa-7,9-diaza-8-phosphadodecan-12-oate 8-oxide] | – | – | > 8400 nM | IC50 (HIV-1 (H9/IIIB strain); [6]): 7340 nM
21 | CC(C)OC(=O)[C@H](C)CNP(=O)(CO[C@H](C)Cn1cnc2c(N)ncnc21)NC[C@@H](C)C(=O)OC(C)C [Example 4, 1-methylethyl (5R,11R)-8-{[(1R)-2-(6-amino-9H-purin-9-yl)-1-methylethoxy]methyl}-2,5,11-trimethyl-4-oxo-3-oxa-7,9-diaza-8-phosphadodecan-12-oate 8-oxide] | – | – | > 8400 nM | IC50 (HIV-1 (H9/IIIB strain); [6]): 6460 nM
22 | CC(C)OC(=O)C[C@H](C)NP(=O)(CO[C@H](C)Cn1cnc2c(N)ncnc21)N[C@@H](C)CC(=O)OC(C)C [Example 5, 1-methylethyl (6S,10S)-8-{[(1R)-2-(6-amino-9H-purin-9-yl)-1-methylethoxy]methyl}-2,6,10-trimethyl-4-oxo-3-oxa-7,9-diaza-8-phosphadodecan-12-oate 8-oxide] | – | – | > 8400 nM | IC50 (HIV-1 (H9/IIIB strain); [6]): > 8400 nM
23 | CC(C)OC(=O)[C@H](C)NP(=O)(CO[C@H](C)Cn1cnc2c(N)ncnc21)NC[C@H](C)C(=O)OC(C)C (some centres unmarked) [Example 6B] | – | – | – | IC50 (HIV-1 (H9/IIIB strain); [2]): 258 nM; IC50 (HIV-1 (H9/IIIB strain); [3]): 494 nM
24 | CC(C)OC(=O)C[C@@H](C)NP(=O)(CO[C@H](C)Cn1cnc2c(N)ncnc21)N[C@H](C)C(=O)OC1CCC1 (some centres unmarked) [Example 18B] | – | – | – | IC50 (HIV-1 (H9/IIIB strain); [2]): 3810 nM; IC50 (HIV-1 (H9/IIIB strain); [3]): 7120 nM
25 | CCCCCOC(=O)C(C)(C)N[P@@](=O)(CO[C@H](C)Cn1cnc2c(N)ncnc21)N[C@@H](CC(=O)OC(C)C)C(C)C [Example 24B] | – | – | – | IC50 (HIV-1 (H9/IIIB strain); [2]): 28.9 nM; IC50 (HIV-1 (H9/IIIB strain); [3]): 170 nM
